Measurements: the supplement of paper PMC10307832

Columns and labels:
Assay in all cases: relative viability (nuclei count vs DMSO), 5 days (fraction); higher = more cells survive
Selumetinib + Crizotinib = compound: Cn1cnc2c(F)c(Nc3ccc(Br)cc3Cl)c(C(=O)NOCCO)cc21 [Selumetinib] + C[C@@H](Oc1cc(-c2cnn(C3CCNCC3)c2)cnc1N)c1c(Cl)ccc(F)c1Cl [Crizotinib] (partner 1 µM)
In short: (§1)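 Each reported value is a median over duplicate plates. It expresses relative viability: treated-well nuclei count divided by vehicle-well nuclei count. Lung cancer cell lines in 1536-well plates were dosed by pin tool a day after seeding, alone with one drug or with a fixed anchor-drug dose plus five library-drug doses (not always all listed) in √10 steps, and nuclei were counted after 5 days.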

Venetoclax + Decitabine = compound: CC1(C)CCC(CN2CCN(c3ccc(C(=O)NS(=O)(=O)c4ccc(NCC5CCOCC5)c([N+](=O)[O-])c4)c(Oc4cnc5[nH]ccc5c4)c3)CC2)=C(c2ccc(Cl)cc2)C1 [Venetoclax] + Nc1ncn([C@H]2C[C@H](O)[C@@H](CO)O2)c(=O)n1 [Decitabine] (partner 2 µM)
In short: as §1

Selumetinib + Trametinib = compound: Cn1cnc2c(F)c(Nc3ccc(Br)cc3Cl)c(C(=O)NOCCO)cc21 [Selumetinib] + CC(=O)Nc1cccc(-n2c(=O)n(C3CC3)c(=O)c3c(Nc4ccc(I)cc4F)n(C)c(=O)c(C)c32)c1 [Trametinib] (partner 0.02 µM)
In short: as §1

Venetoclax + Pictilisib = compound: CC1(C)CCC(CN2CCN(c3ccc(C(=O)NS(=O)(=O)c4ccc(NCC5CCOCC5)c([N+](=O)[O-])c4)c(Oc4cnc5[nH]ccc5c4)c3)CC2)=C(c2ccc(Cl)cc2)C1 [Venetoclax] + CS(=O)(=O)N1CCN(Cc2cc3nc(-c4cccc5[nH]ncc45)nc(N4CCOCC4)c3s2)CC1 [Pictilisib] (partner 1 µM)
In short: as §1

Cell Line: UMC-11
- relative viability (Selumetinib + Crizotinib; first compound 0.02 µM): 0.686
- relative viability (Selumetinib + Crizotinib; first compound 0.06325 µM): 0.594
- relative viability (Selumetinib + Crizotinib; first compound 0.2 µM): 0.515
- relative viability (Selumetinib + Crizotinib; first compound 0.6325 µM): 0.645
- relative viability (Venetoclax + Decitabine; first compound 0.01 µM): 0.705
- relative viability (Venetoclax + Decitabine; first compound 0.03162 µM): 0.595
- relative viability (Venetoclax + Decitabine; first compound 0.1 µM): 0.48
- relative viability (Venetoclax + Decitabine; first compound 0.3162 µM): 0.686
- relative viability (Venetoclax + Decitabine; first compound 1 µM): 0.608
- relative viability (Selumetinib + Trametinib; first compound 0.02 µM): 0.562
- relative viability (Selumetinib + Trametinib; first compound 0.06325 µM): 0.703
- relative viability (Selumetinib + Trametinib; first compound 0.2 µM): 0.879
- relative viability (Selumetinib + Trametinib; first compound 0.6325 µM): 0.812
- relative viability (Venetoclax + Pictilisib; first compound 0.01 µM): 0.817
- relative viability (Venetoclax + Pictilisib; first compound 0.03162 µM): 0.985
- relative viability (Venetoclax + Pictilisib; first compound 0.1 µM): 0.747
- relative viability (Venetoclax + Pictilisib; first compound 0.3162 µM): 0.741
- relative viability (Venetoclax + Pictilisib; first compound 1 µM): 0.72
